pIC50: −log10 of the molar value. Calls of active or inactive are those of the source. The calls are words filed in the database; no cut-off is given here. Non-standard residues stand in square brackets, D forms with d. Residues, ends and D or L forms follow the SMILES beside them. *: point of attachment. Tetrazole5CO(2-(4-MeOPh)) = COc1ccc(-n2nnc(C(=O)*)n2)cc1; Trp(6-Cl) = N[C@@H](Cc1c[nH]c2cc(Cl)ccc12)C(=O)O; X1 = COc1ccc(N2N=C(C(=O)*)CC2C(N)=O)cc1; Methacryloyl = C=C(C)C(=O)*
Each compound was assayed on U2OS (assay: Drug uptake in human U2OS cells at 20 uM after 4 hrs by fluorescence microscopy).
Assay type: ADME, cell-based

Row | Drug uptake | Compound
1 | Active | C=C(C)C(=O)NCCCC[C@H](NC(=O)[C@H](Cc1ccccc1)NC(=O)[C@@H](NC(=O)[C@H](CC(C)C)NC(C)=O)[C@@H](C)O)C(=O)N[C@@H](CCCN=C(N)N)C(=O)N[C@@H](Cc1ccc(O)cc1)C(=O)N[C@@H](Cc1c[nH]c2ccccc12)C(=O)N[C@@H](C)C(=O)N[C@@H](CCCN=C(N)N)C(=O)N[C@@H](CC(C)C)C(=O)N[C@@H](CCCCNC(=O)c1nnn(-c2ccc(OC)cc2)n1)C(=O)N[C@@H](CO)C(N)=O (Ac-LTFK(Methacryloyl)RYWARLK(Tetrazole5CO(2-(4-MeOPh)))S-NH2)
2 | Active | C=C(C)C(=O)NCCCC[C@H](NC(=O)[C@H](Cc1ccccc1)NC(=O)[C@@H](NC(=O)[C@H](CC(C)C)NC(C)=O)[C@@H](C)O)C(=O)N[C@@H](CCCNC(=N)N)C(=O)N[C@@H](Cc1ccc(O)cc1)C(=O)N[C@@H](Cc1c[nH]c2ccccc12)C(=O)N[C@@H](CCCNC(=N)N)C(=O)N[C@@H](CCC(N)=O)C(=O)N[C@@H](CC(C)C)C(=O)N[C@@H](CCCCNC(=O)c1nnn(-c2ccc(OC)cc2)n1)C(=O)N[C@@H](CO)C(N)=O (Ac-LTFK(Methacryloyl)RYWRQLK(Tetrazole5CO(2-(4-MeOPh)))S-NH2)
3 | Active | C=C(C)C(=O)NCCCC[C@H](NC(=O)[C@H](Cc1ccccc1)NC(=O)[C@@H](NC(=O)[C@H](CC(C)C)NC(C)=O)[C@@H](C)O)C(=O)N[C@@H](Cc1cnc[nH]1)C(=O)N[C@@H](Cc1ccc(O)cc1)C(=O)N[C@@H](Cc1c[nH]c2ccccc12)C(=O)N[C@@H](C)C(=O)N[C@@H](CCCN=C(N)N)C(=O)N[C@@H](CC(C)C)C(=O)N[C@@H](CCCCNC(=O)c1nnn(-c2ccc(OC)cc2)n1)C(=O)N[C@@H](CO)C(N)=O
4 | Active | C=C(C)C(=O)NCCCC[C@H](NC(=O)[C@H](Cc1ccccc1)NC(=O)[C@@H](NC(=O)[C@H](CC(C)C)NC(C)=O)[C@@H](C)O)C(=O)N[C@@H](CCCN=C(N)N)C(=O)N[C@@H](Cc1ccc(O)cc1)C(=O)N[C@@H](Cc1c[nH]c2cc(Cl)ccc12)C(=O)N[C@@H](CCCN=C(N)N)C(=O)N[C@@H](CCC(N)=O)C(=O)N[C@@H](CC(C)C)C(=O)N[C@@H](CCCCNC(=O)c1nnn(-c2ccc(OC)cc2)n1)C(=O)N[C@@H](CO)C(N)=O (Ac-LTFK(Methacryloyl)RY[Trp(6-Cl)]RQLK(Tetrazole5CO(2-(4-MeOPh)))S-NH2)
5 | Active | C=C(C)C(=O)NCCCC[C@H](NC(=O)[C@H](Cc1ccccc1)NC(=O)[C@@H](NC(=O)[C@H](CC(C)C)NC(C)=O)[C@@H](C)O)C(=O)N[C@@H](Cc1cnc[nH]1)C(=O)N[C@@H](Cc1ccc(O)cc1)C(=O)N[C@@H](Cc1c[nH]c2ccccc12)C(=O)N[C@@H](CCCN=C(N)N)C(=O)N[C@@H](CCC(N)=O)C(=O)N[C@@H](CC(C)C)C(=O)N[C@@H](CCCCNC(=O)c1nnn(-c2ccc(OC)cc2)n1)C(=O)N[C@@H](CO)C(N)=O

Row | Compound | Drug uptake
6 | COc1ccc(N2N=C(C(=O)NCCCC[C@H](NC(=O)[C@H](CC(C)C)NC(=O)[C@H](CCC(N)=O)NC(=O)[C@H](CCCNC(=N)N)NC(=O)[C@H](Cc3c[nH]c4ccccc34)NC(=O)[C@H](Cc3ccc(O)cc3)NC(=O)[C@H](CCCNC(=N)N)NC(=O)[C@H](CCCCNC(C)=O)NC(=O)[C@H](Cc3ccccc3)NC(=O)[C@@H](NC(=O)[C@H](CC(C)C)NC(C)=O)[C@@H](C)O)C(=O)N[C@@H](CO)C(N)=O)CC2C(N)=O)cc1 (some centres not stated) (Ac-LTFK(Ac)RYWRQLK(X1)S-NH2) | Active

The compounds below were run against E3 ubiquitin-protein ligase Mdm2 (Homo sapiens, UniProt Q00987) (assay: Inhibition of human GST-tagged Mdm2 expressed in Escherichia coli harboring integrated p53-Mmd2 protein assessed as blockade of enzyme-p53 interaction by ELISA assay).
Chain of E3 ubiquitin-protein ligase Mdm2 (Q00987 whole entry): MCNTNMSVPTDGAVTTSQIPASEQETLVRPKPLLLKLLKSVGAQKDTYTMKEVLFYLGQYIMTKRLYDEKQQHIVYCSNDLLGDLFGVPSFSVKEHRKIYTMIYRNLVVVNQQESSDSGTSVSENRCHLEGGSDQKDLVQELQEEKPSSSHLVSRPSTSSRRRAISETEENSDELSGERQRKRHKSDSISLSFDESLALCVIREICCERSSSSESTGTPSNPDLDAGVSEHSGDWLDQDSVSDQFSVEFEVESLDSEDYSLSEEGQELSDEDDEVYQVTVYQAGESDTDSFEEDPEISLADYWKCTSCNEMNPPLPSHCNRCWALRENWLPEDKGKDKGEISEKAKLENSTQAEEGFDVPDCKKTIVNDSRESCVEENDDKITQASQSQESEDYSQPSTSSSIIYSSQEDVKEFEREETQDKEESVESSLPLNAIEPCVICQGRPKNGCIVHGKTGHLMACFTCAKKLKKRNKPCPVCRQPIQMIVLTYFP

Row | pIC50 | Compound
7 | > 8.00 | CC(=O)NCCCC[C@H](NC(=O)[C@H](Cc1ccccc1)NC(=O)[C@@H](NC(=O)[C@H](CC(C)C)NC(C)=O)[C@@H](C)O)C(=O)N[C@@H](Cc1cnc[nH]1)C(=O)N[C@@H](Cc1ccc(O)cc1)C(=O)N[C@@H](Cc1c[nH]c2ccccc12)C(=O)N[C@@H](C)C(=O)N[C@@H](CCC(N)=O)C(=O)N[C@@H](CC(C)C)C(=O)N[C@H](C(=O)N[C@@H](CO)C(N)=O)[C@@H](C)O
8 | > 7.51 | Ac-LTFEHYWK(Ac)QLTS-NH2
9 | > 7.32 | Ac-LTFEHYWAK(Ac)LTS-NH2
10 | > 7.32 | CC(=O)NCCCC[C@H](NC(=O)[C@H](CC(C)C)NC(=O)[C@H](CCC(N)=O)NC(=O)[C@H](C)NC(=O)[C@H](Cc1c[nH]c2ccccc12)NC(=O)[C@H](Cc1ccc(O)cc1)NC(=O)[C@H](Cc1cnc[nH]1)NC(=O)[C@H](CCC(=O)O)NC(=O)[C@H](Cc1ccccc1)NC(=O)[C@@H](NC(=O)[C@H](CC(C)C)NC(C)=O)[C@@H](C)O)C(=O)N[C@@H](CO)C(N)=O

What follows are compounds tested on U2OS (assay: Induction of p53-dependent luciferase activity in human U2OS cells at 20 uM).
Assay type: functional, cell-based

Row | Compound | Activity
11 | COc1ccc(N2N=C(C(=O)NCCCC[C@H](NC(=O)[C@H](CC(C)C)NC(=O)[C@H](CCC(N)=O)NC(=O)[C@H](CCCNC(=N)N)NC(=O)[C@H](Cc3c[nH]c4ccccc34)NC(=O)[C@H](Cc3ccc(O)cc3)NC(=O)[C@H](CCCNC(=N)N)NC(=O)[C@H](CCCCNC(C)=O)NC(=O)[C@H](Cc3ccccc3)NC(=O)[C@@H](NC(=O)[C@H](CC(C)C)NC(C)=O)[C@@H](C)O)C(=O)N[C@@H](CO)C(N)=O)CC2C(N)=O)cc1 (some centres not stated) (Ac-LTFK(Ac)RYWRQLK(X1)S-NH2) | inactive
12 | Ac-LTFEHYWAQLTS-NH2 | inactive

Reference: ChEMBL document CHEMBL1687880, “Synthesis of cell-permeable stapled peptide dual inhibitors of the p53-Mdm2/Mdmx interactions via photoinduced cycloaddition” (Bioorg Med Chem Lett, 2011)
